Test [1] deals with JNK. Description: LPS-induced phospho-JNK in RAW264.7 cells, immunoblot. Format: cell-based, murine. The following applies: peptide 5 μM, 10 ng/ml LPS 5-60 min. On the procedure: FIGS. 27A, B and C are immunoblots showing the effect of A464 on LPS-induced appearance of phospho-JNK in murine RAW264.7 cells. Cells were set up as for FIG. 25 above and 5 μM A467 (SEQ ID NO. 23) or A464 (SEQ ID NO. 20) were added to the wells 1 hour before stimulation. Cells were stimulated with 10 ng/ml LPS for a period of 5, 15, 30 or 60 min, then harvested and lysed. Proteins were resolved by SDS-PAGE, and transferred membranes immunoblotted for phospho-JNK (A), total JNK (B) or β-actin (C). The blots shown are representative of two experiments;
RAW264.7 cells were seeded at a density of 1×10^5 cells/ml in 6 well plates. […] The protein concentration was determined by monitoring the change in the solution absorbance at 280 nm using a spectrophotometer compared to protein standards. […] Thereafter, the membranes were washed, incubated in appropriate secondary antibody and then developed using standard enhanced chemi-luminescence (ECL) reagents.
Next, the effect of A464 (SEQ ID No. 20) on MAPK activation was measured by assaying the phosphorylation of p38 and JNK by Western blot. […] As before the protein concentration in the samples was determined by Bradford assay and the accuracy of the loading was confirmed by re-probing the blot for β-actin. […]

Test [2] relates to p38 MAPK. Briefly: LPS-induced phospho-p38 MAPK in RAW264.7 cells, immunoblot. Format: cell-based, murine. The following applies: peptide 5 μM, 10 ng/ml LPS 5, 30 or 60 min. As to the method:
FIGS. 28A and B are immunoblots showing the effect of A464 on LPS-induced appearance of phospho-p38 MAPK in murine RAW264.7. Cells were set up as for FIG. 24 above and 5 μM A467 (SEQ ID NO. 23) or A464 (SEQ ID NO. 20) were added to the wells 1 hour before stimulation. Cells were stimulated with 10 ng/ml LPS for a period of 5, 30 or 60 min, then harvested and lysed. Proteins were resolved by SDS-PAGE, and transferred membranes immunoblotted for phospho-p38 (A) or total p38 (B). The blots shown are representative of two experiments;
RAW264.7 cells were seeded at a density of 1×10^5 cells/ml in 6 well plates. After treatment with peptides and agonists, as described above in relation to the Figs, the medium was removed and the cells were washed once with PBS before scraping them in 100 μl lysis buffer (100 mM NaCl, 50 mM HEPES (pH 7.5), 1 mM EDTA, 0.5% NP-40, 10% Glycerol) and incubating them on ice for 40 min. Samples were spun at 15,000×g for 10min and supernatants collected and stored at −20° C. […] The protein concentration was determined by monitoring the change in the solution absorbance at 280 nm using a spectrophotometer compared to protein standards. […] Thereafter, the membranes were washed, incubated in appropriate secondary antibody and then developed using standard enhanced chemi-luminescence (ECL) reagents. […]
A general note: A western blot detects proteins with antibodies after separation by electrophoresis.

The source of these data is patent US8722052B2, “Vaccinia virus protein A46 peptide and use thereof” (priority 2008, dated 2014).

Regarding KYSFKLILAEYRRRRRRRRR [Peptide A464], the “effect on LPS-induced phosphorylation of JNK” value in test [1] is “completely inhibited phosphorylation of JNK at all times of the LPS stimulation”. In test [2], the “inhibition of LPS-induced p38 phosphorylation” value is “very potent inhibition of LPS-induced p38 phosphorylation at all the time points”.
